Laboratory results from the supplement of paper PMC10307832.

How the values were obtained:
Test in all cases: relative viability (nuclei count vs DMSO), 5 days (fraction); higher = more cells survive
[1] = compound: Cc1ccc(Nc2nccc(N(C)c3ccc4c(C)n(C)nc4c3)n2)cc1S(N)(=O)=O [Pazopanib] + CC(=O)c1c(C)c2cnc(Nc3ccc(N4CCNCC4)cn3)nc2n(C2CCCC2)c1=O [Palbociclib] (partner 0.5 µM)
Method in brief: (§1)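 Lung cancer cell lines in 1536-well plates were dosed by pin tool the day after seeding, either with one drug alone or with a fixed anchor-drug dose plus five library-drug doses (not always all listed) in √10 steps. After 5 days, cells were fixed and their nuclei stained in one step (final 0.05% Triton X-100, 1% formaldehyde, 1 ug/ml Hoechst), then counted on 4× images. Relative viability is the nuclei count in treated wells divided by that in vehicle wells. Values are medians of duplicate plates.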

[2] = compound: Cc1ccc(Nc2nccc(N(C)c3ccc4c(C)n(C)nc4c3)n2)cc1S(N)(=O)=O [Pazopanib] + CC1(C)CCC(c2ccc(Cl)cc2)=C(CN2CCN(c3ccc(C(=O)NS(=O)(=O)c4ccc(N[C@H](CCN5CCOCC5)CSc5ccccc5)c(S(=O)(=O)C(F)(F)F)c4)cc3)CC2)C1 [Navitoclax] (partner 0.5 µM)
Method in brief: as §1

[3] = compound: Cc1ccc(Nc2nccc(N(C)c3ccc4c(C)n(C)nc4c3)n2)cc1S(N)(=O)=O [Pazopanib] + CS(=O)(=O)CCNCc1ccc(-c2ccc3ncnc(Nc4ccc(OCc5cccc(F)c5)c(Cl)c4)c3c2)o1 [Lapatinib] (partner 2 µM)
Method in brief: as §1

[4] = compound: Cc1ccc(C(=O)Nc2ccc(CN3CCN(C)CC3)c(C(F)(F)F)c2)cc1C#Cc1cnc2cccnn12 [Ponatinib] + O=C(c1cc(Cc2n[nH]c(=O)c3ccccc23)ccc1F)N1CCN(C(=O)C2CC2)CC1 [Olaparib] (partner 8 µM)
Method in brief: as §1

## UMC-11
[1]; first compound 0.01 µM
  relative viability: 0.305
[1]; first compound 0.03162 µM
  relative viability: 0.347
[1]; first compound 0.1 µM
  relative viability: 0.31
[1]; first compound 0.3162 µM
  relative viability: 0.358
[1]; first compound 1 µM
  relative viability: 0.32
[2]; first compound 0.01 µM
  relative viability: 0.318
[2]; first compound 0.03162 µM
  relative viability: 0.312
[2]; first compound 0.1 µM
  relative viability: 0.303
[2]; first compound 0.3162 µM
  relative viability: 0.268
[2]; first compound 1 µM
  relative viability: 0.348
[3]; first compound 0.01 µM
  relative viability: 0.807
[3]; first compound 0.03162 µM
  relative viability: 1.03
[3]; first compound 0.1 µM
  relative viability: 0.939
[3]; first compound 0.3162 µM
  relative viability: 1.01
[3]; first compound 1 µM
  relative viability: 1.12
[4]; first compound 0.002 µM
  relative viability: 0.405
[4]; first compound 0.006325 µM
  relative viability: 1.01
[4]; first compound 0.06325 µM
  relative viability: 0.338
[4]; first compound 0.2 µM
  relative viability: 0.366
